Here are results for 3 compounds from patent US10209236B2, “Cell analyzer system, cell analyzer program, and cell analyzing method” (Sony Corporation, priority 2012, dated 2019).

Assay type in all cases: cell-based
Experiment [1] has as its system neuron cells (iPS Academia Japan) that were differentiation of iPS cells. Put plainly: Motion vibration of neuron cells, FFT power spectra. The settings on record: for spontaneous membrane potential vibration of the neural cells: confirmed by the vibration characteristics of the motion vibration. The method, then:
Effects of GABA and L-Glu administered on the neuron cells were evaluated. The GABA or the L-Glu was administered to incubation liquid of the neuron cells (iPS Academia Japan) that were differentiation of iPS cells. Each neuron cell was image-captured at 2 flame/sec for 1 minute to provide each cell image.
In each cell image, the motion vibration was extracted using the image range including one neuron cell as the extraction range. FIG. 23(a) is a graph of the motion vibration extracted from the cell image of the neural cells to which the GABA is administrated. FIG. 23(b) is a graph of the motion vibration extracted from the cell image of the neural cells to which the L-Glu is administrated.
Then, the FFT analysis was applied to the motion vibration to calculate power spectra. FIG. 24(a) is a graph of power spectrum calculated from the motion vibration (FIG. 23(a)) of the neuron cells to which the GABA is administered. FIG. 24(b) is a graph of power spectrum calculated from the motion vibration (FIG. 23(b)) of the neuron cells to which the L-Glu is administered.

Experiment [2] shares this test system. Put plainly: Fluorescence intensity vibration (Ca2+ imaging with Fluo8) of neuron cells, FFT power spectra. To be noted: for spontaneous membrane potential vibration of the neural cells: confirmed by the vibration characteristics of the fluorescence intensity vibration. On the procedure: Effects of GABA and L-Glu on the neuron cells and the neuron cell network were evaluated using the fluorescence intensity vibration. The GABA is a physiological active substance that gives inhibitory stimulation to the neuron cells. The L-Glu gives exciting stimulation.
Fluo8 (fluorescent labeling) used in Ca^2+ imaging was entrained in the neuron cells (iPS Academia Japan) that were differentiation of iPS cells. The GABA or the L-Glu was administered to incubation liquid. Fluorescence of the Fluo8 generated from each neuron cell was image-captured at 2 flame/sec for 1 minute to provide each cell image.
The fluorescence intensity vibration (vibration information) was extracted from each cell image, taking the image range including one neuron cell as the extraction range. FIG. 9(a) is a graph of fluorescence intensity vibration extracted from the cell image of the neuron cells to which the GABA is administered. FIG. 9(b) is a graph of fluorescence intensity vibration extracted from the cell image of the neuron cells to which the L-Glu is administered.
Then, the FFT analysis was applied to fluorescence intensity vibration to calculate power spectra (vibration characteristics). FIG. 10(a) is a graph of power spectrum calculated from the fluorescence intensity vibration ([…]) of the neuron cells to which the GABA is administered. FIG. 10(b) is a graph of power spectrum calculated from the fluorescence intensity vibration ([…]) of the neuron cells to which the L-Glu is administered.

The subject of experiment [3] is neural cells derived from iPS cells where a sufficient neural cell network was formed. Nature of the experiment: Evaluation of cytotoxicity by motion vibration. The settings on record: whole image as extraction range; 5 μm of memantine with 500 nM or 5000 nM of Aβ peptide; incubated for five days; FIG. 28. The method, then: Effects of a cytotoxic substance administered on the neuron cells were evaluated using the motion vibration of the cells. As a cytotoxic model, the cytotoxicity of Aβ peptide considered as a cause of the Alzheimer disease and a neuroprotective action of an anti-alzheimer's disease drug, i.e., memantine were evaluated. As the cytotoxicity of Aβ peptide, there are a synapse failure by acting on synapses and a cell failure entrained in the cells. The cell group of the neural cells derived from iPS cells where a sufficient neural cell network was formed was prepared. A predetermined amount of Aβ peptide or Aβ peptide and memantine was administered to each cell group to incubate for five days. After five days, the cell image of each cell group was captured to extract the motion vibration from the whole image and each cell as the extraction range and the vibration characteristics were calculated. FIGS. 27(a) to (f) are graphs of the vibration characteristics of the motion vibration extracted from the extraction range including the whole image. […] FIG. 28 is a graph of average values of the vibration power extracted from the motion vibration in each cell group shown in FIGS. 27(a) to (e) in each pixel included in the extraction range. […] On the other hand, when memantine was administered, the vibration power is not decreased. […]

Setting [4] is: extraction range including one neuron cell, compared with neuron cells to which the L-Glu is administered, FIGS. 24(a) and 24(b).
[5] abbreviates: extraction range including one neuron cell, compared with neuron cells to which the L-Glu is administered, FIGS. 10(a) and 10(b).

For `NCCCC(=O)O` [GABA], the “spontaneous membrane potential vibration of the neural cells” value (from here on “spontaneous membrane potential vibration”) in experiment [1] is “changed”. For the same compound, in experiment [1] (setting [4]), the “amplitude of the motion vibration” value was “greater” and the “frequency of the motion vibration” value is listed as “lower”. Further, the “spontaneous membrane potential vibration” value in experiment [2] is “changed”. Further, in experiment [2] (setting [5]), the “amplitude of the fluorescence intensity vibration” value is “greater” and the “frequency of the fluorescence intensity vibration” value is listed as “lower”.
Take `N[C@@H](CCC(=O)O)C(=O)O` [L-Glu]: the “spontaneous membrane potential vibration” value in experiment [1] and in experiment [2] was “changed” each time.
In the case of `CC12CC3CC(C)(C1)CC(N)(C3)C2` [memantine], the “vibration power of the cell group (motion vibration, average values in each pixel)” value in experiment [3] is on record as “not decreased”.
